Laboratory results from patent US5041567A, “Antibacterial monic acid derivatives” (Beecham Group plc, priority 1982, dated 1991).
In brackets after ≈: the same amount, converted by molar mass. Where two headings read alike, the source gives them in different places.

Experiments:
Past. multocida PA1 = experiment: MIC against veterinary bacteria in vitro; settings: Pasteurella multocida, PA1, 18 h
Protocol: (§1) The activity of the compounds of the Examples against various veterinarily important bacteria, was assayed in vitro using two-fold serial dilutions in Diagnostic Sensitivity Test Agar inoculated with 10^4 organisms.

M. suipneumoniae NB12 = experiment: MIC against mycoplasma in vitro; type: cell-based; settings: Mesomycoplasma hyopneumoniae
M. suipneumoniae UCD 1 = experiment: MIC against mycoplasma in vitro; type: cell-based; settings: Mesomycoplasma hyopneumoniae, UCD1, 144 h
M. suipneumoniae Str. 11 = experiment: MIC against mycoplasma in vitro; type: cell-based; settings: Mesomycoplasma hyopneumoniae
[1] = test system: Haemophilus influenzae Wy21; experiment: MIC against human bacteria in vitro; type: cell-based; settings: Haemophilus influenzae Wy21; 5% chocolated horse blood agar, 18 hours; read-out: MIC
Past. multocida PA2 = experiment: MIC against veterinary bacteria in vitro; settings: Pasteurella multocida, PA2, 18 h
Protocol: as §1

M. hyorhinis ATCC 25021 = experiment: MIC against mycoplasma in vitro; type: cell-based; settings: Mesomycoplasma hyorhinis, ATCC25021, 144 h
M. dispar NCTC 10125 = experiment: MIC against mycoplasma in vitro; type: cell-based; settings: 144 h
Sarcina lutea 8340 = experiment: MIC against human bacteria in vitro; type: cell-based; settings: Micrococcus luteus; Sarcina lutea 8340; 5% chocolated horse blood agar, 18 hours; read-out: MIC
Strep. pneumoniae CN33 = experiment: MIC against human bacteria in vitro; type: cell-based; settings: Streptococcus pneumoniae; Strep. pneumoniae CN33; 5% chocolated horse blood agar, 18 hours; read-out: MIC
M. gallisepticum S6 = experiment: MIC against mycoplasma in vitro; type: cell-based; settings: Mycoplasmoides gallisepticum
[2] = test system: M. suipneumoniae NCTC 10110; experiment: MIC against mycoplasma in vitro; type: cell-based; settings: Mesomycoplasma hyopneumoniae, NCTC10110, 144 h
M. suipneumoniae TAM 6N = experiment: MIC against mycoplasma in vitro; type: cell-based; settings: Mesomycoplasma hyopneumoniae, TAM6N, 144 h
[3] = test system: Strep. suis (group D) SPS11; experiment: MIC against veterinary bacteria in vitro; settings: Streptococcus suis, 18 h
Protocol: as §1

[4] = test system: M. suipneumoniae PW/C/210; experiment: MIC against mycoplasma in vitro; type: cell-based; settings: Mesomycoplasma hyopneumoniae, 144 h
Past. haemolytica PA5 = experiment: MIC against veterinary bacteria in vitro; settings: Mannheimia haemolytica, PA5, 18 h
Protocol: as §1

M. suipneumoniae JF 435 = experiment: MIC against mycoplasma in vitro; type: cell-based; settings: Mesomycoplasma hyopneumoniae, JF435, 144 h
Strep. agalactiae 2788-B = experiment: MIC against human bacteria in vitro; type: cell-based; settings: Streptococcus agalactiae; Strep. agalactiae 2788-B; 5% chocolated horse blood agar, 18 hours; read-out: MIC
E. coli NCTC 10418 [5] = experiment: MIC against veterinary bacteria in vitro; settings: Escherichia coli, NCTC10418, 18 h
Protocol: as §1

E. coli NCTC 10418 [6] = experiment: MIC against human bacteria in vitro; type: cell-based; settings: Escherichia coli, NCTC10418; E. coli NCTC 10418; agar with 5% chocolated horse blood, 18 hours, 37° C.; read-out: MIC
[7] = test system: Neisseria catarrhalis 1502; experiment: MIC against human bacteria in vitro; type: cell-based; settings: Neisseria catarrhalis 1502; 5% chocolated horse blood agar, 18 hours; read-out: MIC
Strep. agalactiae SPA1 = experiment: MIC against veterinary bacteria in vitro; settings: Streptococcus agalactiae, SPA1, 18 h
Protocol: as §1

[8] = test system: Strep. pyogenes R80/421-A; experiment: MIC against human bacteria in vitro; type: cell-based; settings: Streptococcus pyogenes; Strep. pyogenes R80/421-A; 5% chocolated horse blood agar, 18 hours; read-out: MIC
Staph. aureus Oxford = experiment: MIC against human bacteria in vitro; type: cell-based; settings: Staphylococcus aureus; Staph. aureus Oxford; 5% chocolated horse blood agar, 18 hours; read-out: MIC
E. coli E1 = experiment: MIC against veterinary bacteria in vitro; settings: Escherichia coli, E1, 18 h
Protocol: as §1

P. mirabilis 889 = experiment: MIC against human bacteria in vitro; type: cell-based; settings: Proteus mirabilis; P. mirabilis 889; 5% chocolated horse blood agar, 18 hours; read-out: MIC
[9] = test system: M. bovigenitalium ATCC 14173; experiment: MIC against mycoplasma in vitro; type: cell-based; settings: 144 h
[10] = test system: Staph. aureus 152 (pen. sens); experiment: MIC against veterinary bacteria in vitro; settings: Staphylococcus aureus, 18 h
Protocol: as §1

M. suipneumoniae MS 16 = experiment: MIC against mycoplasma in vitro; type: cell-based; settings: Mesomycoplasma hyopneumoniae, MS16, 144 h
[11] = test system: Corynebacterium xerosis 9755; experiment: MIC against human bacteria in vitro; type: cell-based; settings: Corynebacterium xerosis 9755; 5% chocolated horse blood agar, 18 hours; read-out: MIC
[12] = test system: Ps. aeruginosa NCTC 10662; experiment: MIC against human bacteria in vitro; type: cell-based; settings: Pseudomonas aeruginosa, NCTC10662; Ps. aeruginosa NCTC 10662; 5% chocolated horse blood agar, 18 hours; read-out: MIC
Staph. aureus W2827 = experiment: MIC against human bacteria in vitro; type: cell-based; settings: Staphylococcus aureus; Staph. aureus W2827; 5% chocolated horse blood agar, 18 hours; read-out: MIC
S. dublin S7 = experiment: MIC against veterinary bacteria in vitro; settings: Salmonella enterica, S7, 18 h
Protocol: as §1

[13] = test system: M. suipneumoniae ATCC 25095; experiment: MIC against mycoplasma in vitro; type: cell-based; settings: Mesomycoplasma hyopneumoniae, ATCC25095, 144 h
Staph. aureus Russell = experiment: MIC against human bacteria in vitro; type: cell-based; settings: Staphylococcus aureus; Staph. aureus Russell; 5% chocolated horse blood agar, 18 hours; read-out: MIC

Row | SMILES | MIC (Past. multocida PA1) [µg/mL] | MIC [1] [µg/mL] | MIC (Past. multocida PA2) [µg/mL] | MIC (Sarcina lutea 8340) [µg/mL] | MIC (Strep. pneumoniae CN33) [µg/mL] | MIC [3] [µg/mL] | MIC (Past. haemolytica PA5) [µg/mL] | MIC (Strep. agalactiae 2788-B) [µg/mL] | MIC (E. coli NCTC 10418 [5]) [µg/mL] | MIC (E. coli NCTC 10418 [6]) [µg/mL] | MIC [7] [µg/mL] | MIC (Strep. agalactiae SPA1) [µg/mL] | MIC [8] [µg/mL] | MIC (Staph. aureus Oxford) [µg/mL] | MIC (E. coli E1) [µg/mL] | MIC (P. mirabilis 889) [µg/mL] | MIC [10] [µg/mL] | MIC [11] [µg/mL] | MIC [12] [µg/mL] | MIC (Staph. aureus W2827) [µg/mL] | further results
1 | C/C(=C\c1ncc(-c2ccc([S+](C)[O-])cc2)o1)C[C@@H]1OC[C@H](C[C@@H]2O[C@H]2[C@@H](C)[C@H](C)O)[C@@H](O)[C@H]1O (stereo partly shown) [Example 11, 5-p-Methylsulphinylphenyl-2-(1-normon-2-yl) oxazole A] | 5 (≈ 9.89 µM) | 4 (≈ 7.91 µM) | 0.625 (≈ 1.24 µM) | > 128 | 4 (≈ 7.91 µM) | 5 (≈ 9.89 µM) | 40 (≈ 79.1 µM) | 4 (≈ 7.91 µM) | > 80 | > 128 | 8 (≈ 15.8 µM) | 2.5 (≈ 4.94 µM) | 4 (≈ 7.91 µM) | 16 (≈ 31.6 µM) | > 80 | > 128 | 2.5 (≈ 4.94 µM) | > 128 | > 128 | 16 (≈ 31.6 µM) | MIC (M. suipneumoniae NB12; 144 h, M. suipneumoniae NB12, Friis broth, 0.9% agarose, 6 days, 37° C., read-out: MIC): 0.1 µg/mL (≈ 0.198 µM); MIC (M. suipneumoniae UCD 1; M. suipneumoniae UCD 1, 6 days, 37° C., read-out: MIC): 0.25 µg/mL (≈ 0.494 µM); MIC (M. suipneumoniae Str. 11; 144 h, M. suipneumoniae Str. 11, 6 days, 37° C., read-out: MIC): 0.1 µg/mL (≈ 0.198 µM); MIC (M. hyorhinis ATCC 25021; M. hyorhinis ATCC 25021, 6 days, 37° C., read-out: MIC): 0.1 µg/mL (≈ 0.198 µM); MIC (M. dispar NCTC 10125; M. dispar NCTC 10125, 6 days, 37° C., read-out: MIC): 0.1 µg/mL (≈ 0.198 µM); MIC (M. gallisepticum S6; 144 h, M. gallisepticum S6, 6 days, 37° C., read-out: MIC): 0.5 µg/mL (≈ 0.989 µM); MIC ([2]; M. suipneumoniae NCTC 10110, 6 days, 37° C., read-out: MIC): 0.25 µg/mL (≈ 0.494 µM); MIC (M. suipneumoniae TAM 6N; M. suipneumoniae TAM 6N, 6 days, 37° C., read-out: MIC): 0.5 µg/mL (≈ 0.989 µM); MIC ([4]; M. suipneumoniae PW/C/210, 6 days, 37° C., read-out: MIC): 0.1 µg/mL (≈ 0.198 µM); MIC (M. suipneumoniae JF 435; M. suipneumoniae JF 435, 6 days, 37° C., read-out: MIC): 0.25 µg/mL (≈ 0.494 µM); MIC ([9]; M. bovigenitalium ATCC 14173, 6 days, 37° C., read-out: MIC): 0.1 µg/mL (≈ 0.198 µM); MIC (M. suipneumoniae MS 16; M. suipneumoniae MS 16, 6 days, 37° C., read-out: MIC): 0.1 µg/mL (≈ 0.198 µM); MIC (S. dublin S7): > 80 µg/mL; MIC ([13]; M. suipneumoniae ATCC 25095, 6 days, 37° C., read-out: MIC): 0.25 µg/mL (≈ 0.494 µM); MIC (Staph. aureus Russell): 16 µg/mL (≈ 31.6 µM)
2 | C/C(=C\c1ncc(-c2ccc(S(C)(=O)=O)cc2)o1)C[C@@H]1OC[C@H](C[C@@H]2O[C@H]2[C@@H](C)[C@H](C)O)[C@@H](O)[C@H]1O [Example 10] | 5 (≈ 9.59 µM) | 2 (≈ 3.83 µM) | 1.25 (≈ 2.4 µM) | > 128 | 8 (≈ 15.3 µM) | 10 (≈ 19.2 µM) | 40 (≈ 76.7 µM) | 8 (≈ 15.3 µM) | > 80 | > 128 | 8 (≈ 15.3 µM) | 2.5 (≈ 4.79 µM) | 8 (≈ 15.3 µM) | 8 (≈ 15.3 µM) | > 80 | > 128 | 2.5 (≈ 4.79 µM) | > 128 | > 128 | 8 (≈ 15.3 µM) | MIC (M. suipneumoniae NB12; NB12, 144 h): 0.05 µg/mL (≈ 0.0959 µM); MIC (M. suipneumoniae UCD 1): 0.05 µg/mL (≈ 0.0959 µM); MIC (M. suipneumoniae Str. 11; STR.11, 144 h): 0.025 µg/mL (≈ 0.0479 µM); MIC (M. hyorhinis ATCC 25021): 0.025 µg/mL (≈ 0.0479 µM); MIC (M. dispar NCTC 10125): 0.025 µg/mL (≈ 0.0479 µM); MIC (M. gallisepticum S6; S6, 144 h): 0.1 µg/mL (≈ 0.192 µM); MIC [2]: 0.05 µg/mL (≈ 0.0959 µM); MIC (M. suipneumoniae TAM 6N): 0.05 µg/mL (≈ 0.0959 µM); MIC [4]: 0.025 µg/mL (≈ 0.0479 µM); MIC (M. suipneumoniae JF 435): 0.05 µg/mL (≈ 0.0959 µM); MIC [9]: 0.025 µg/mL (≈ 0.0479 µM); MIC (M. suipneumoniae MS 16): 0.025 µg/mL (≈ 0.0479 µM); MIC (S. dublin S7): > 80 µg/mL; MIC [13]: 0.025 µg/mL (≈ 0.0479 µM); MIC (Staph. aureus Russell): 8 µg/mL (≈ 15.3 µM)
